Results from PubChem BioAssay (NCI).
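Step 1: Grow cells in 96-well plates. Step 2: Expose to compound for 48 hours at 5 concentrations. Step 3: Interpolate endpoints linearly; if unreached, use highest concentration. TGI is the concentration that stops growth completely.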 Where a SMILES comes first, the peptide text is derived from it. The star is where a group is joined. Cbz = O=C(OCc1ccccc1)*

Assays:
Assay in all cases: NCI tumour cell line growth inhibition, 48 h
M19-MEL melanoma = system: M19-MEL melanoma
HOP-18 NSCLC = system: HOP-18 NSCLC
DMS 273 small cell lung = system: DMS 273 small cell lung
OVCAR-4 ovarian = system: OVCAR-4 ovarian
DMS 114 small cell lung = system: DMS 114 small cell lung
SNB-78 CNS = system: SNB-78 CNS
SK-MEL-5 melanoma = system: SK-MEL-5 melanoma
KM20L2 colon = system: KM20L2 colon
LXFL 529 NSCLC = system: LXFL 529 NSCLC
NCI-H23 lung = system: NCI-H23 lung
XF 498 CNS = system: XF 498 CNS
DLD-1 colon = system: DLD-1 colon
MDA-N = system: MDA-N

Structure (SMILES) | TGI (M19-MEL melanoma) [µM] | TGI (HOP-18 NSCLC) [µM] | TGI (DMS 273 small cell lung) [µM] | TGI (OVCAR-4 ovarian) [µM] | TGI (DMS 114 small cell lung) [µM] | TGI (SNB-78 CNS) [µM] | TGI (SK-MEL-5 melanoma) [µM] | TGI (KM20L2 colon) [µM] | TGI (LXFL 529 NSCLC) [µM] | TGI (NCI-H23 lung) [µM] | TGI (XF 498 CNS) [µM] | TGI (DLD-1 colon) [µM] | TGI (MDA-N) [µM]
CC(C)NC1CCCCC2c3ccccc3C12O (stereo not drawn) | > 100 | > 100 | > 100 | > 100 | > 100 | > 100 | > 100 | > 100 | > 100 | > 100 | > 100 | – | –
COc1ccc(/C=C2\C(=O)N(C(=O)c3ccc(NC(C)=O)cc3)N=C2C)cc1OC | > 100 | > 100 | > 100 | > 100 | > 100 | > 100 | > 100 | – | – | > 100 | > 100 | > 100 | –
CCN1CC2=C(OC(N)=C(C#N)C2c2ccc(Cl)cc2)/C(=C/c2ccc(Cl)cc2)C1 (stereo not drawn) | – | – | – | > 100 | – | – | > 100 | – | – | 68.7 | – | – | > 100
Cc1ccc(N=NC(=Nc2ccc(F)cc2)c2ccc(N(CCC#N)CCC#N)cc2)cc1 | – | – | – | > 100 | – | – | > 100 | – | – | > 100 | – | – | > 100
CCCCOC(=O)Nc1ccc(S(=O)(=O)Nc2c(Cl)cccc2Cl)cc1 | – | – | – | 42.5 | – | – | 28 | – | – | > 100 | – | – | > 100
COC(=O)[C@H](Cc1ccccc1)NC(=O)N(CCN(CCC#N)C(=O)N[C@H](C(=O)OC)C(C)C)c1ccccc1 | – | – | – | > 100 | – | – | > 100 | – | – | > 100 | – | – | > 100
CCOC(=O)c1nc(SC)sc1NC(=O)c1ccc(OC)cc1 | – | – | – | 89.9 | – | – | > 100 | – | – | > 100 | – | – | > 100
O=[N+]([O-])C1=Cc2c(O)ccc(O)c2C2OC=CC12 (stereo not drawn) | – | – | – | 30.2 | – | – | 26.2 | – | – | 32.4 | – | – | 11.4
Cn1c2ccccc2n2c(=O)c(-c3ccc(Cl)cc3)nnc12 | – | – | – | > 100 | – | – | > 100 | – | – | > 100 | – | – | > 100
N#C/C=C(/NC(=O)Nc1ccccc1)N1CCCC1 | – | – | – | > 100 | – | – | > 100 | – | – | > 64.7 | – | – | > 100
CCOC(=O)c1nc2ccccc2nc1Nc1cc(OC)c(OC)c(OC)c1 | – | – | – | > 100 | – | – | > 100 | – | – | > 100 | – | – | > 100
CCO/C(O)=c1/s/c(=C2/SC(=S)N(c3ccc(C)cc3)C2=O)n(-c2ccccc2)c1=N | > 100 | > 100 | – | 44.3 | – | – | > 100 | – | > 100 | > 100 | – | – | > 100
Fc1ccc(F)c(C=NC23CC4CC(CC(C4)C2)C3)c1 | – | – | – | > 10 | – | – | > 10 | – | – | > 10 | – | – | > 10
CCOC(=O)c1ccc(-c2onc(C)c2Br)[nH]1 | – | – | – | > 100 | – | – | > 100 | – | – | > 100 | – | – | > 100
COC(=O)c1sc2nc(Nc3ccccc3)c(=Nc3ccccc3)sc2c1C | – | – | – | > 100 | – | – | > 100 | – | – | > 100 | – | – | > 100
CN1CCN(c2n[nH]c(=O)c3c2nnn3Cc2ccccc2)CC1 | – | – | – | > 100 | – | – | > 100 | – | – | > 100 | – | – | 40.1
C/C(=N/NC(=S)N1CCCCCC1)c1cccc(/C(C)=N\NC(=S)N2CCCCCC2)n1 | – | – | – | 2.44 | – | – | 2.72 | – | – | 5.44 | – | – | 4.9
CC(=O)N1N=C(c2ccccc2)NC(=O)C1c1cc(C)c(O)c(C)c1 (stereo not drawn) | – | – | – | 43.3 | – | – | 56.4 | – | – | 64.1 | – | – | > 100
CCN(CC)c1c(-c2c(OC(C)C)c(=O)c2=O)c(=O)n2ccsc2c1OC(C)=O | – | – | – | > 100 | – | – | > 100 | – | – | > 100 | – | – | > 100
O=C1c2cccnc2S(=O)(=O)N1c1ccc(Br)cc1 | – | – | – | > 100 | – | – | > 100 | – | – | > 100 | – | – | > 100
CCCCCCCCCCCCCOCCOCCOCCCCC(O)CCCCCCCCCC1=C[C@H](C)OC1=O (stereo partly drawn) | – | – | – | 71.9 | – | – | 30.2 | – | – | 60 | – | – | 45.3
CCOC(=O)CCC(NC(=O)C(CC(=O)OC)NC(=O)OCc1ccccc1)C(=O)NC(CC(=O)OC)C(=O)NC(CCC(=O)OCC)C(=O)NC(CC(=O)OC)C(=O)NC(CCC(=O)OCC)C(=O)NC(CC(=O)OCC)C(=O)OCC (stereo not drawn) (Cbz-D(OMe)E(OEt)D(OMe)E(OEt)D(OMe)E(OEt)D(OEt)-OEt; configuration not given here) | – | – | – | > 100 | – | – | > 100 | – | – | > 100 | – | – | > 100
Nc1nc(N)c2cc(-c3cc4ccccc4[nH]3)ccc2n1 | – | – | – | 63.5 | – | – | 30.2 | – | – | > 100 | – | – | 40.7
CC(C)C(Sc1nc(-c2ccccc2)c(-c2ccccc2)[nH]1)C(=O)N/N=C/c1ccc(Cl)cc1 (stereo not drawn) | 34.6 | – | 39.6 | 98.4 | 71.5 | > 100 | 30.5 | 46.2 | 82.8 | 52.8 | – | > 100 | –
